According to patent US8153781B2, “Dendrimer conjugates of agonists and antagonists of the GPCR superfamily” (The United States of America as represented by the …, priority 2007, dated 2012):
One block for each compound: values may come before it.

Assays:
[1] = target: T1, A1AR (Homo sapiens, UniProt P30542); test: Binding at A1AR with [3H]CCPA, CHO cells
T1 construct: expressed in transfected cells; host or cells: CHO cells
T1 sequence (P30542 1-326): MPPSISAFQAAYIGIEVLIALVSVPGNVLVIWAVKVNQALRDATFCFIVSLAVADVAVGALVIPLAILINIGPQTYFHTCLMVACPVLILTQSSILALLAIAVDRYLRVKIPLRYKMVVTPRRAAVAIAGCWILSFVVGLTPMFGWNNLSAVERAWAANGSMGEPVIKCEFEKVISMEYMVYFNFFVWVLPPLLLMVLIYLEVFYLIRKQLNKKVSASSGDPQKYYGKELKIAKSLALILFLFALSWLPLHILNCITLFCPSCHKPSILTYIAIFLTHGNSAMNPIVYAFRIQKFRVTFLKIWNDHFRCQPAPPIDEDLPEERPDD

[2] = target: T1, A1AR; test: [35S]GTPγS binding, A1AR; assay type: biochemical; conditions: CHO cells expressing A1AR
[3] = target: T2, A2AAR (Homo sapiens, UniProt P29274); test: Binding at A2AAR with [3H]CGS21680, HEK cells
T2 construct: expressed in transfected cells; host or cells: CHO

[4] = target: T3, hA2A AR (Homo sapiens, UniProt P29274); test: Radioligand membrane binding assay, A2A AR; design: expressed in transfected cells; conditions: for Ki: Table 3, expressed in CHO cells
Procedure: (§1) Radioligand Membrane Binding Experiments. Radioligand binding assays were performed for A1, A2A, and A3 ARs. Each tube in the binding assay contained 100 μL of membrane suspension (20 μg of protein), 50 μL of agonist radioligand, and 50 μL of increasing concentrations of the test ligands in Tris-HCl buffer (50 mM, pH 7.5) containing 10 mM MgCl2. Nonspecific binding was determined using […] 5′-N-ethylcarboxamidoadenosine diluted with the buffer. The mixtures were incubated at 25° C. for 60 min. Binding reactions were terminated by filtration through Whatman GF/B filters under a reduced pressure using a MT-24 cell harvester (Brandell, Gaithersburg, Md.). Filters were washed three times with 5 mL of 50 mM ice-cold Tris-HCl buffer (pH 7.5). […] After the filters were washed, the radioactivity was measured using a Beckman γ-counter. For the A1 and A2A assays, the radioactive agonists [^3H] N^6-chlorocyclopentyladenosine and [^3H] 2-(4-(2-carboxyethyl)phenylethylamino)-5′-N-ethylcaboxamido-adenosine were used, respectively. After the filters were washed, they were placed in scintillation vials containing 5 mL of Hydrofluor scintillation buffer and counted using a Perkin Elmer Liquid Scintillation Analyzer. The Ki value was determined using GraphPad Prism for all assays.

[5] = target: T4, hA1 AR (Homo sapiens, UniProt P30542); test: Radioligand membrane binding assay, A1 AR; conditions: Table 3; expressed in CHO cells
T4 construct: expressed in transfected cells; host or cells: CHO cells
T4 sequence (P30542 1-326): T1 sequence (P30542 1-326)

[6] = target: T5, hA3 AR (Homo sapiens, UniProt P0DMS8); test: Calcium protocol, CHO cells expressing human A3 receptor; assay type: cell-based
T5 construct: expressed in transfected cells; host or cells: CHO cells
T5 sequence (P0DMS8 1-318): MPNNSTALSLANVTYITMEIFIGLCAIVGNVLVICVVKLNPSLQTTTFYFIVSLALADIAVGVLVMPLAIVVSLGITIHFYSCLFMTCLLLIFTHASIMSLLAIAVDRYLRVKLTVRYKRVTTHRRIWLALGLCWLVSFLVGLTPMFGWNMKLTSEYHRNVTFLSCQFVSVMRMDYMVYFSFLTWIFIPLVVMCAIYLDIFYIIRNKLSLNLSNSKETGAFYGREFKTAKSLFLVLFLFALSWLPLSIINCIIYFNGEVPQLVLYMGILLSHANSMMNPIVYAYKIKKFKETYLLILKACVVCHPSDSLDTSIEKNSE
Procedure: Calcium Protocol. Chinese Hamster Ovary (CHO) cells stably expressing the human A3 receptor were grown in Dulbecco's Modified Eagle Medium/F12 (Sigma) supplemented with 10% fetal bovine serum, antibiotics, and glutamine. Each assay was completed by passaging the CHO A3 cells into 96 well plates and incubating overnight at 37° C. with 5% CO2. The FLIPR Calcium 4 Kit provided by Molecular Devices was used as described previously (Niebauer). Briefly, the media was removed from the cells, and 30 μl of the Calcium 4 fluorescent dye supplemented with 2.5 mM probenecid was added to each well. The cells were incubated at room temperature for 45 minutes. The compound plate was prepared by diluting the compounds to 10^−5-10^−9 M in Hanks Buffer. Samples were run in duplicate on the Molecular Devices FlexStation I at room temperature. […] Increases in intracellular calcium are reported as the relative fluorescence units after exposure minus the basal fluorescence value before exposure. Each experiment was repeated at least three times.

[7] = target: T3, hA2A AR; test: Functional assay at hA2A AR (Table 3); assay type: cell-based; design: expressed in transfected cells; conditions: Table 3 functional assay
[8] = target: T5, hA3 AR; test: Radioligand membrane binding assay, A3 AR; conditions: Table 3; expressed in CHO cells
Procedure: as §1

[9] = target: T6, A3 adenosine receptor (Homo sapiens, UniProt P0DMS8); test: cAMP inhibition assay, A3 adenosine receptor; assay type: cell-based; conditions: Table 8
T6 sequence (P0DMS8 1-318): T5 sequence (P0DMS8 1-318)
Excerpt: (§2) This Example illustrates a preparation and some of the properties of conjugate 117 in accordance with an embodiment of the invention.

[10] = target: T7, A1 adenosine receptor (Homo sapiens, UniProt P30542); test: cAMP inhibition assay, A1 adenosine receptor; assay type: cell-based; conditions: Table 8
T7 sequence (P30542 1-326): T1 sequence (P30542 1-326)
Excerpt: as §2

[11] = target: T6, A3 adenosine receptor; test: Binding assay at A3 adenosine receptor (Table 7)
Procedure: CHO (Chinese hamster ovary) cells expressing the recombinant human ARs were cultured in Dulbecco's modified Eagle medium (DMEM) and F12 (1:1) supplemented with 10% fetal bovine serum, 100 units/mL penicillin, 100 μg/mL streptomycin, and 2 μmol/mL glutamine. After harvesting, cells were homogenized and suspended. Cells were then centrifuged at 500 g for 10 min, and the pellet was resuspended in 50 mM Tris-HCl buffer (pH 7.5) containing 10 mM MgCl2. The suspension was homogenized and was then recentrifuged at 20 000 g for 20 min at 4° C. The resultant pellets were resuspended in Tris buffer, incubated with adenosine deaminase for 30 min at 37° C., and the suspension was stored at −80° C. until the binding experiments. The protein concentration was measured using the Bradford assay.
as §2

[12] = target: T3, hA2A AR

T2 sequence (P29274 whole entry): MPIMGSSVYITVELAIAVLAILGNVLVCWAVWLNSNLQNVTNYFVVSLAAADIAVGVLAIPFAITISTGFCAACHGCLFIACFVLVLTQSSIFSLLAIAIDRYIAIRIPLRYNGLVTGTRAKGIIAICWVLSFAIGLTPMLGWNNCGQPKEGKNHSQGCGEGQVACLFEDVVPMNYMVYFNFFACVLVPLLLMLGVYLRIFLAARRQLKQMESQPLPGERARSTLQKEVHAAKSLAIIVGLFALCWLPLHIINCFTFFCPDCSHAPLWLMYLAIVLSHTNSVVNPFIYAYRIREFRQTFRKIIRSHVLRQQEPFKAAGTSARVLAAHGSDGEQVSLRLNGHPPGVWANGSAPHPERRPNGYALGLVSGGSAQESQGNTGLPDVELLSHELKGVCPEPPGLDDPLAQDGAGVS
T3 sequence (P29274 whole entry): as above

Ki [1]: 30 nM
EC50 [2]: 3000 ± 1300 nM
Ki [3]: 800 ± 360 nM
Compound: O=C(O)CCc1ccc(NC(=S)NCCNC(=O)Cc2ccc(NC(=O)Cc3ccc(Nc4ncnc5c4ncn5[C@@H]4O[C@H](CO)[C@@H](O)[C@H]4O)cc3)cc2)cc1 [compound 104]

EC50 [7]: 51 ± 8 nM
Ki [4]: 110 ± 15 nM
Ki [5]: 984 ± 223 nM
Ki [8]: 58 ± 24 nM
EC50 [6]: 725 ± 110 nM
Compound: CCNC(=O)[C@H]1OC(n2cnc3c(N)nc(NCCc4ccc(CCC(=O)NCCNC(C)=O)cc4)nc32)[C@@H](O)C1O (stereo partly shown) [compound 16]

Ki [1]: 43 nM
Ki [9]: 61 nM
EC50 [2]: 50 nM
Ki [10]: 72 nM
Ki [3]: 300 ± 20 nM
Ki [11]: 10 ± 2 nM
Compound: NCCNCCNC(=O)Cc1ccc(NC(=O)Cc2ccc(Nc3ncnc4c3ncn4[C@@H]3O[C@H](CO)[C@@H](O)[C@H]3O)cc2)cc1 [compound 107, N-(2-Aminoethyl)-ADAC]

Further lines, the compound ahead of its results:

Compound: NCCNC(=O)Cc1ccc(NC(=O)Cc2ccc(Nc3ncnc4c3ncn4[C@@H]3O[C@H](CO)[C@@H](O)[C@H]3O)cc2)cc1 [compound 101, N^6-[4-[[[4-[[[(2-Aminoethyl)amino]carbonyl]methyl]-anilino]carbonyl]methyl]phenyl]adenosine, reference compound]
Ki [1]: 10.4 ± 3.8 nM
EC50 [2]: 120 ± 13 nM
Ki [3]: 370 ± 100 nM

Compound: CCNC(=O)[C@H]1OC(n2cnc3c(N)nc(NCCc4ccc(CCC(=O)NCCNC(=S)Nc5ccc(NC(=S)NCCNC(C)=O)cc5)cc4)nc32)[C@@H](O)C1O (stereo partly shown) [compound 7]
Ki [4]: 70 nM
Ki [5]: 840 ± 100 nM
EC50 [6]: 375 ± 40 nM

Compound: CCNC(=O)[C@H]1OC(n2cnc3c(N)nc(NCCc4ccc(CCC(=O)NCCNC(=S)Nc5ccc(N=C=S)cc5)cc4)nc32)[C@@H](O)C1O (stereo partly shown) [compound 6]
inhibition at 10 µM ([4]; read-out: inhibition of binding at the hA2A AR): 58%

Compound: CCNC(=O)[C@H]1O[C@@H](n2cnc3c(N)nc(NCCc4ccc(CCC(=O)NCCN)cc4)nc32)[C@H](O)[C@@H]1O [compound 5, 2-[4-(2-aminoethylaminocarbonylethyl)phenylethylamino]-5′-N-ethylcarboxamidoadenosine]
hA2A, EC50 (class symbol) [12]: FA (Full agonist at 10 μM with >90% of effect of NECA)
